How the values were obtained:
[1] = test system: PANC-1 (prancreatic carcinoma) cell line; assay: CellTiter-Glo luminescent cell viability assay, PANC-1; type: cell-based; settings: Homo sapiens; for viability at 4 µM: PANC-1, 4 μM; for viability at 4 µM / viability at 10 µM: 72 h, % of signal of diluent-treated cultures; for viability at 10 µM: PANC-1, 10 μM; for EC50: PANC-1 cell line, 72 h incubation, CellTiter-Glo, read-out: EC50 (growth inhibition assay of PANC-1 cell line)
Procedure, shortened: (§1)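 Cells were cultured at 37 °C, 5% CO2 with 10% FBS; adherent lines were plated overnight, suspension MOLM-14 plated 1 h before dosing. Compounds in H2O or DMSO were added at various concentrations for 72 h, and viability was read by luminescence. EC50 is the dose reducing signal to 50% of diluent control.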

[2] = test system: Huh7 (hepatocellular carcinoma) cell line; assay: CellTiter-Glo luminescent cell viability assay, Huh7; type: cell-based, human; settings: Homo sapiens, Huh-7; for viability at 4 µM: Huh7, compound at 4 μM; for viability at 4 µM / viability at 10 µM: 72 h; for viability at 10 µM: Huh7, compound at 10 μM; for EC50: Huh7 cell line, 72 h incubation, CellTiter-Glo, read-out: EC50, growth inhibition of Huh7
Procedure, shortened: as §1

[3] = test system: A375 (malignant melanoma) cell line; assay: CellTiter-Glo luminescent cell viability assay, A375; type: cell-based, human; settings: Homo sapiens, A-375; for viability at 4 µM: A375, compound at 4 μM; for viability at 4 µM / viability at 10 µM: 72 h; for viability at 10 µM: A375, compound at 10 μM; for EC50: A375 cell line, 72 h incubation, CellTiter-Glo, read-out: EC50, growth inhibition of A375
Procedure, shortened: (§2)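 72 h compound exposure, 37 °C, 5% CO2, 10% FBS medium; ATP luminescence read after 30 min RT equilibration. Viability as % of H2O/DMSO diluent control; EC50 = dose giving 50% of control signal. Duplicate points minimum.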

[4] = test system: HCT-116 (colorectal carcinoma) cell line; assay: CellTiter-Glo luminescent cell viability assay, HCT-116; type: cell-based, human; settings: Homo sapiens; for viability at 4 µM: HCT-116, compound at 4 μM; for viability at 4 µM / viability at 10 µM: 72 h; for viability at 10 µM: HCT-116, compound at 10 μM; for EC50: HCT-116 cell line, 72 h incubation, CellTiter-Glo, read-out: EC50, growth inhibition of HCT-116
Procedure, shortened: as §2

[5] = test system: MOLM-14 (acute myeloid leukemia) cell line; assay: CellTiter-Glo luminescent cell viability assay, MOLM-14; type: cell-based, human; settings: Homo sapiens; for viability at 4 µM: MOLM-14, compound at 4 μM; for viability at 4 µM / viability at 10 µM: 72 h; for viability at 10 µM: MOLM-14, compound at 10 μM; for EC50: MOLM-14 cell line, 72 h incubation, CellTiter-Glo, read-out: EC50, growth inhibition of MOLM-14
Procedure, shortened: as §1

[6] = test system: HepG2 (hepatocellular carcinoma) cell line; assay: CellTiter-Glo luminescent cell viability assay, HepG2; type: cell-based, human; settings: Homo sapiens; for viability at 4 µM / viability at 10 µM: HepG2, HepG, 72 h; for viability at 4 µM: compound at 4 μM; for viability at 10 µM: compound at 10 μM; for EC50: HepG2 cell line, 72 h incubation, CellTiter-Glo, read-out: EC50, growth inhibition of HepG2
Procedure, shortened: as §1

[7] = test system: 786-O (renal adenocarcinoma) cell line; assay: CellTiter-Glo luminescent cell viability assay, 786-O; type: cell-based, human; settings: Homo sapiens, 786-0; for EC50: 786-O cell line, 72 h incubation, CellTiter-Glo, read-out: EC50, growth inhibition of 786-O; for viability at 4 µM / viability at 10 µM: 786-O, 72 h; for viability at 4 µM: compound at 4 μM; for viability at 10 µM: compound at 10 μM
Procedure, shortened: as §2

| SMILES | viability at 4 µM [1] [%] | viability at 10 µM [1] [%] | EC50 [1] [µM] | viability at 4 µM [2] [%] | viability at 10 µM [2] [%] | EC50 [2] [µM] | viability at 4 µM [3] [%] | viability at 10 µM [3] [%] | EC50 [3] [µM] | viability at 4 µM [4] [%] | viability at 10 µM [4] [%] | EC50 [4] [µM] | viability at 4 µM [5] [%] | viability at 10 µM [5] [%] | EC50 [5] [µM] | viability at 4 µM [6] [%] | viability at 10 µM [6] [%] | EC50 [6] [µM] | viability at 4 µM [7] [%] | viability at 10 µM [7] [%] | other results |
| --- | --- | --- | --- | --- | --- | --- | --- | --- | --- | --- | --- | --- | --- | --- | --- | --- | --- | --- | --- | --- | --- |
| COc1ccc(CNc2nc3ccccc3c(N3CCC(NC(C)(C)C)CC3)c2C#N)cc1 [Compound 3290CN, 2-(4-methoxybenzylamino)-3-cyano-4-[4-(tert-butylamino)piperidin-1-yl]quinoline] | 95.7 | 38.3 | 5 to 10 | 80.2 | 1 | 0.5 to 5 | 57.6 | 0.8 | 0.5 to 5 | 43.8 | 0.7 | 0.5 to 5 | 76.4 | 7.4 | 5 to 10 | 75.5 | 0.7 | 0.5 to 5 | 74.1 | 2.7 | EC50 [7]: 5 to 10 µM |
| CC(C)(C)NC1CCN(c2c(C#N)c(NCc3ccc(C(F)(F)F)cc3)nc3ccccc23)CC1 [Compound 3292CN, 2-[4-(trifluoromethyl)benzylamino]-3-cyano-4-[4-(tert-butylamino)piperidin-1-yl]quinoline] | 75.6 | 25 | 5 to 10 | 10.2 | 0.2 | 0.5 to 5 | 0.3 | 0.2 | 0.5 to 5 | 0.3 | 0.1 | 0.5 to 5 | 54.7 | 0.3 | 5 to 10 | 20.5 | 0.2 | 0.5 to 5 | 0.5 | 0.2 | EC50 [7]: 0.5 to 5 µM |
| CC(C)(C)NC1CCN(c2c(C#N)c(NCc3ccc4c(c3)OCO4)nc3ccccc23)CC1 [Compound 3300CN, 2-[(benzo[d][1,3]dioxol-5-ylmethyl)amino]-3-cyano-4-[4-(tert-butylamino)piperidin-1-yl]quinoline] | 78 | 27.4 | 5 to 10 | 63.2 | 0.5 | 5 to 10 | 47.2 | 0.4 | 0.5 to 5 | 13.9 | 0.2 | 0.5 to 5 | 70.2 | 0.5 | 5 to 10 | 62.7 | 0.5 | 5 to 10 | 60 | 0.8 | EC50 [7]: 5 to 10 µM |
| CC(C)(C)NC1CCN(c2c(C#N)c(NCc3ccco3)nc3ccccc23)CC1 [Compound 3302CN, 2-[(furan-2-ylmethyl)amino]-3-cyano-4-[4-(tert-butylamino)piperidin-1-yl]quinoline] | 95.8 | 82.3 | – | 76.6 | 40.1 | – | 81.6 | 14.3 | – | 57.4 | 10.8 | – | 82.3 | 67 | – | 83.3 | 57.5 | – | 86.1 | 48.1 | – |
| CC(C)(C)NC1CCN(c2c(C#N)c(NCc3cccnc3)nc3ccccc23)CC1 [Compound 3304CN, 2-[(pyridin-3-ylmethyl)amino]-3-cyano-4-[4-(tert-butylamino)piperidin-1-yl]quinoline] | 99.3 | 98.7 | – | 93.3 | 82.8 | – | 99.5 | 74.4 | – | 70.6 | 41.6 | – | 94.2 | 81 | – | 91.2 | 83.4 | – | 98.9 | 80.7 | – |
| CC(C)(C)NC1CCN(c2c(C#N)c(NCc3ccncc3)nc3ccccc23)CC1 [Compound 3306CN, 2-[(pyridin-4-ylmethyl)amino]-3-cyano-4-[4-(tert-butylamino)piperidin-1-yl]quinoline] | 101 | 93.3 | – | 91.7 | 82.4 | – | 79.2 | 77.4 | – | 83.9 | 72.6 | – | 97.6 | 94.5 | – | 83.4 | 71.6 | – | 84 | 71.7 | – |
| CC(C)(C)NC1CCN(c2c(C#N)c(NCc3ccccn3)nc3ccccc23)CC1 [Compound 3308CN, 2-[(pyridin-2-ylmethyl)amino]-3-cyano-4-[4-(tert-butylamino)piperidin-1-yl]quinoline] | 102 | 99.1 | – | 88.6 | 74.2 | – | 96.3 | 67.7 | – | 72.8 | 32.9 | – | 85.8 | 57.1 | – | 92.6 | 76.5 | – | 101 | 81.1 | – |

Source: patent US10577362B2, “Substituted 2, 4-diamino-quinoline derivatives for use in the treatment of proliferative diseases” (GENOSCIENCE PHARMA, priority 2016, dated 2020)
